According to ChEMBL document CHEMBL1156743, “Design, synthesis, and biological evaluations of 2,5-diaryl-2,3-dihydro-1,3,4-oxadiazoline analogs of combretastatin-A4” (J Med Chem, 2010):
Converted amounts (≈) assume the structure as drawn. The source made the active and inactive calls. The calls are words filed in the database; no cut-off is given here.

Assays:
L1210 = assay: Antiproliferative activity against mouse L1210 cells after 72 hrs by MTT assay; format: functional, cell-based; details: L1210, 72 h
MDA-MB-435 [1] = assay: Ratio of EC50 for rat A10 cells to IC50 for human MDA-MB-435 cells; format: functional
[2] = Relative aqueous solubility at pH 7.4 by filter plate assay; format: physicochemical; details: buffer
MDA-MB-435 [3] = assay: Antiproliferative activity against human MDA-MB-435 cells after 48 hrs by SRB assay; format: functional, cell-based; details: MDA-MB-435, 48 h
A10 [4] = assay: Antiproliferative activity against rat A10 cells assessed as microtubule depolymerization after 18 to 24 hrs by indirect immunofluorescence technique; format: functional, cell-based
[5] = Antiproliferative activity against mouse B16F0 cells after 72 hrs by MTT assay; format: functional
SK-OV-3 [6] = assay: Antiproliferative activity against human SKOV3 cells expressing adenoviral MDR1 after 48 hrs by SRB assay; format: functional, cell-based; details: SK-OV-3, 48 h
A10 [7] = assay: Antiproliferative activity against rat A10 cells assessed as microtubule depolymerization at 1 uM after 18 hrs by indirect immunofluorescence technique; format: functional, cell-based
HeLa [8] = assay: cells; details: Homo sapiens, 48 h
Description: Antiproliferative activity against human HeLa cells after 48 hrs by SRB assay

HeLa [9] = assay: Antimitotic activity in human HeLa cells assessed as multipolar mitotic spindles at 0.5 uM after 18 hrs by indirect immunofluorescence technique; format: functional, cell-based
MDA-MB-435 [10] = assay: Cell cycle arrest in human MDA-MB-435 cells assessed as accumulation at G2/M phase at 0.5 uM after 18 hrs by flow cytometry; format: functional, cell-based
HeLa [11] = assay: Antimitotic activity in human HeLa cells assessed as gamma-tubulin containing centrosomes at 0.5 uM after 18 hrs by indirect immunofluorescence technique; format: functional, cell-based
HeLa [12] = assay: Antiproliferative activity against human HeLa cells expressing wild type beta3 tubulin after 48 hrs by SRB assay; format: functional, cell-based
SK-OV-3 [13] = assay: Antiproliferative activity against human SKOV3 cells after 48 hrs by SRB assay; format: functional, cell-based; details: SK-OV-3, 48 h
HeLa [14] = assay: Antimitotic activity in human HeLa cells assessed as effect on DNA at 0.5 uM after 18 hrs by indirect immunofluorescence technique; format: functional, cell-based

Work on `COc1ccc(OC)c(C2OC(c3cc(OC)c(OC)c(OC)c3)=NN2C(C)=O)c1` (stereo unspecified) yielded an IC50 (L1210) of 55 µM.

In the case of `COc1ccc(C2OC(c3cc(OC)c(OC)c(OC)c3)=NN2C(C)=O)cc1` (stereo unspecified), the IC50 (L1210) is reported as 57 µM.

In the case of `COc1cc(C2=NN(C(C)=O)C(c3ccc([N+](=O)[O-])cc3)O2)cc(OC)c1OC` (stereo unspecified), the IC50 (L1210) is reported as 4.2 µM.

Molecule `COc1cc(OC)cc(C2OC(c3cc(OC)c(OC)c(OC)c3)=NN2C(C)=O)c1` (stereo unspecified) has an IC50 (L1210) of 5.9 µM.

`COc1ccc(C2=NN(C(C)=O)C(c3cccc([N+](=O)[O-])c3)O2)cc1` (stereo unspecified) gave an IC50 (L1210) of 47 µM.

Work on `COc1ccc(C2=NN(C(C)=O)C(c3ccc([N+](=O)[O-])cc3)O2)cc1` (stereo unspecified) yielded an IC50 (L1210) of 68 µM.

For `COc1ccc(C2=NN(C(C)=O)C(c3ccccc3OC)O2)cc1` (stereo unspecified), the IC50 (L1210) was 5.8 µM.

With `COc1cc(C2=NN(C(C)=O)C(c3ccccc3)O2)cc(OC)c1OC` (stereo unspecified) the IC50 (L1210) was 6.4 µM.

In the case of `COc1ccc(C2=NN(C(C)=O)C(c3cc(OC)cc(OC)c3)O2)cc1` (stereo unspecified), the Ratio (MDA-MB-435 [1]) is reported as 9.1, the solubility [2] is reported as 94 µM (≈ 33.5 µg/mL) and the IC50 (L1210) is reported as 0.5 µM. The IC50 (MDA-MB-435 [3]) was 0.11 µM and the EC50 (A10 [4]) was 1 µM.

Molecule `COc1ccc(C2=NN(C(C)=O)C(c3ccc(OC)cc3)O2)cc1` (stereo unspecified) has an IC50 (L1210) greater than 100 µM.

In the case of `COc1cccc(C2OC(c3cc(OC)c(OC)c(OC)c3)=NN2C(C)=O)c1` (stereo unspecified), the IC50 (L1210) is reported as 45 µM.

In the case of `COc1ccc(C2OC(c3cc(OC)c(OC)c(OC)c3)=NN2C(C)=O)cc1[N+](=O)[O-]` (stereo unspecified), the IC50 (L1210) is reported as 58 µM.

With `COc1ccc(C2=NN(C(C)=O)C(c3cccc(Br)c3)O2)cc1` (stereo unspecified) the IC50 (L1210) was 37 µM.

`COc1ccc(C2=NN(C(C)=O)C(c3cccc(OC)c3)O2)cc1` (stereo unspecified) showed an IC50 (L1210) of 41 µM.

Molecule `COc1ccc(C2=NN(C(C)=O)C(c3ccccc3)O2)cc1` (stereo unspecified) has an IC50 (L1210) greater than 100 µM.

`COc1ccc(/C=C\c2cc(OC)c(OC)c(OC)c2)cc1O` [COMBRETASTATIN A4] gave a solubility [2] of 350 µM (≈ 111 µg/mL), an Activity [5] of 0.003 µM and an EC50 (A10 [4]) of 0.007 µM.

For `COc1cc(C2=NN(C(C)=O)C(c3cccc([N+](=O)[O-])c3)O2)cc(OC)c1OC` (stereo unspecified), the IC50 (L1210) was 39 µM.

`COc1ccc(C2=NN(C(C)=O)C(c3ccc(OC)c(OC(C)=O)c3)O2)cc1` (stereo unspecified) gave an IC50 (L1210) greater than 100 µM.

`COc1ccc(C2=NN(C(C)=O)C(c3cc(OC)ccc3OC)O2)cc1` (stereo unspecified) showed a Ratio (MDA-MB-435 [1]) of 6.5, a solubility [2] of 259 µM (≈ 92.3 µg/mL) and an IC50 (L1210) of 0.5 µM. The IC50 (MDA-MB-435 [3]) was 0.2 µM and the EC50 (A10 [4]) was 1.3 µM.

In the case of `COc1cc(C2=NN(C(C)=O)C(c3cccc(Br)c3)O2)cc(OC)c1OC` (stereo unspecified), the Ratio (MDA-MB-435 [1]) is reported as 10, the solubility [2] is reported as 66 µM (≈ 28.7 µg/mL) and the IC50 (L1210) is reported as 0.6 µM. For the same molecule, the IC50 (MDA-MB-435 [3]) was 0.15 µM and the EC50 (A10 [4]) was 1.5 µM.

In the case of `COc1cc(C2=NN(C(C)=O)C(c3cc(OC)c(OC)c(OC)c3)O2)cc(OC)c1OC` (stereo unspecified), the IC50 (L1210) is reported as greater than 100 µM.

`COc1ccc(C2OC(c3cc(OC)c(OC)c(OC)c3)=NN2C(C)=O)cc1OC(C)=O` (stereo unspecified) gave a Ratio (MDA-MB-435 [1]) of 3.1, a solubility [2] of 112 µM (≈ 49.8 µg/mL) and an IC50 (L1210) of 3.9 µM. For the same molecule, the IC50 (MDA-MB-435 [3]) was 3.3 µM and the EC50 (A10 [4]) was 10.2 µM.

`COc1ccc(C2=NN(C(C)=O)C(c3ccc(OC)c([N+](=O)[O-])c3)O2)cc1` (stereo unspecified) gave an IC50 (L1210) greater than 100 µM.

For `COc1ccccc1C1OC(c2cc(OC)c(OC)c(OC)c2)=NN1C(C)=O` (stereo unspecified), the IC50 (L1210) was 48 µM.

In the case of `COc1ccc(C2=NN(C(C)=O)C(c3cc(OC)c(OC)c(OC)c3)O2)cc1` (stereo unspecified), the IC50 (SK-OV-3 [6]) is reported as 0.45 µM, the Activity (A10 [7]) is reported as “Active” and the IC50 (HeLa [8]) is reported as 0.23 µM. For the same molecule, the Activity (HeLa [9]) was “Active”, the Ratio (MDA-MB-435 [1]) was 3.6 and the Activity (MDA-MB-435 [10]) was “Active”. The solubility [2] was 257 µM (≈ 99.3 µg/mL), the IC50 (L1210) was 0.5 µM and the IC50 (MDA-MB-435 [3]) was 0.14 µM. For the same molecule, the Activity (HeLa [11]) was “Active”, the IC50 (HeLa [12]) was 0.27 µM and the EC50 (A10 [4]) was 0.5 µM. The IC50 (SK-OV-3 [13]) was 0.34 µM and the Activity (HeLa [14]) was “Active”.
